IC50 data for 30 compounds are collected here from ChEMBL document CHEMBL6182831, “Thiazole-fused androstenone and ethisterone derivatives: potent β- and γ-actin cytoskeleton inhibitors to treat melanoma tumors” (RSC Med Chem, 2025).

Holding throughout (type): functional
In one test the test system is B16-F10. In words: Cytotoxicity against mouse B16-F10 cells assessed as inhibition of cell growth incubated for 24 hrs by resazurin staining based analysis. To be noted: B16-F10, 24 h. Background: Alamar Blue is a resazurin reagent that responds to reducing activity.
The subject of the next test is SK-MEL-25. In words: Cytotoxicity against human SK-MEL-25 cells assessed as inhibition of cell growth incubated for 24 hrs by resazurin staining based analysis. The note with it: SK-MEL-25, 24 h.
In the next test the test system is SK-MEL-5. Nature of the test: Cytotoxicity against human SK-MEL-5 cells assessed as inhibition of cell growth incubated for 24 hrs by resazurin staining based analysis. To be noted: SK-MEL-5, 24 h.
A further test relates to SK-MEL-28. Nature of the test: Cytotoxicity against human SK-MEL-28 cells assessed as inhibition of cell growth incubated for 24 hrs by resazurin staining based analysis. The note with it: SK-MEL-28, 24 h.
The test system of a further test is LOX IMVI. In words: Cytotoxicity against human LOX IMVI cells assessed as inhibition of cell growth incubated for 24 hrs by resazurin staining based analysis.

The term IC50 denotes the point on the concentration scale where inhibition reaches its midpoint. Take `C#C[C@]1(O)CC[C@H]2[C@@H]3CC=C4c5sc(Nc6cc(Cl)ccn6)nc5CC[C@]4(C)[C@H]3CC[C@@]21C`: the IC50 in the test on B16-F10 came to 3.8 µM; with SK-MEL-25, 4.4 µM; in the test on SK-MEL-5, 3.6 µM; in the test on SK-MEL-28, 2.8 µM; with LOX IMVI, 3 µM.
With `C[C@]12CCc3nc(Nc4ccccc4)sc3C1=CC[C@@H]1[C@@H]2CC[C@]2(C)C(=O)CC[C@@H]12`, the IC50 was 5.8 µM in the test on B16-F10; 6.8 µM in the test with SK-MEL-25; 10.6 µM with SK-MEL-5; 6.1 µM in the test with SK-MEL-28; 2.7 µM in the test with LOX IMVI.
Taken in the same sequence, the figures for `C#C[C@]1(O)CC[C@H]2[C@@H]3CC=C4c5sc(Nc6cccnc6)nc5CC[C@]4(C)[C@H]3CC[C@@]21C` were 10.7 µM, 2.1 µM, 3 µM, 2.3 µM and 2.6 µM.
For `C#C[C@]1(O)CC[C@H]2[C@@H]3CC=C4c5sc(Nc6ccc(OC)cc6OC)nc5CC[C@]4(C)[C@H]3CC[C@@]21C` the same measures were 7.7 µM, 3.3 µM, 3 µM, 4.7 µM and 3.4 µM.
Regarding `C#C[C@]1(O)CC[C@H]2[C@@H]3CC=C4c5sc(Nc6cc(OC)ccc6Cl)nc5CC[C@]4(C)[C@H]3CC[C@@]21C`, the half-inhibitory concentration (IC50) in the test with B16-F10 worked out at 9.7 µM; with SK-MEL-25 it was 3.1 µM; in the test on SK-MEL-5 it was 4.8 µM; in the test on SK-MEL-28, 3.4 µM; with LOX IMVI, 3.2 µM.
For `C#C[C@]1(O)CC[C@H]2[C@@H]3CC=C4c5sc(Nc6ccc(Cl)cn6)nc5CC[C@]4(C)[C@H]3CC[C@@]21C` the same measures were 3 µM, 8.3 µM, 4.8 µM, 3.7 µM and 5.4 µM.
Turning to `COc1ccc(Cl)cc1Nc1nc2c(s1)C1=CC[C@@H]3[C@H](CC[C@]4(C)C(=O)CC[C@@H]34)[C@@]1(C)CC2`, the IC50 is 3.6 µM with B16-F10; greater than 20 µM with SK-MEL-25; greater than 20 µM in the test on SK-MEL-5; 4.8 µM in the test on SK-MEL-28; 3 µM in the test on LOX IMVI.
Take `C#C[C@]1(O)CC[C@H]2[C@@H]3CC=C4c5sc(Nc6cc(C)cc(C)c6)nc5CC[C@]4(C)[C@H]3CC[C@@]21C`: the concentration for half-maximal inhibition (IC50) is 5.8 µM with B16-F10; 3.8 µM in the test with SK-MEL-25; 3.9 µM in the test on SK-MEL-5; 5 µM in the test on SK-MEL-28; 3.6 µM with LOX IMVI.
Turning to `C#C[C@]1(O)CC[C@H]2[C@@H]3CC=C4c5sc(Nc6cc(OC)ccc6OC)nc5CC[C@]4(C)[C@H]3CC[C@@]21C`, the IC50 in the test on B16-F10 was determined as 7.2 µM; in the test with SK-MEL-25 it was 3.4 µM; in the test on SK-MEL-5, 3.5 µM; in the test with SK-MEL-28, 5 µM; with LOX IMVI it was 2.4 µM.
Regarding `C#C[C@]1(O)CC[C@H]2[C@@H]3CC=C4c5sc(Nc6cccc(Cl)n6)nc5CC[C@]4(C)[C@H]3CC[C@@]21C`, the concentration for half-maximal inhibition (IC50) in the test with B16-F10 amounted to 3.8 µM; in the test on SK-MEL-25, 5.7 µM; in the test on SK-MEL-5 it was 2.7 µM; in the test with SK-MEL-28, 2.4 µM; with LOX IMVI it was 5.5 µM.
As for `C#C[C@]1(O)CC[C@H]2[C@@H]3CC=C4c5sc(-c6cccc(O)c6)nc5CC[C@]4(C)[C@H]3CC[C@@]21C`, the half-inhibitory concentration (IC50) with B16-F10 was 2.9 µM; in the test with SK-MEL-25, 6.6 µM; in the test with SK-MEL-5, 3.5 µM; in the test with SK-MEL-28 it was 6 µM; in the test with LOX IMVI, 4.1 µM.
Take `C[C@]12CCc3nc(Nc4cccc(O)c4)sc3C1=CC[C@@H]1[C@@H]2CC[C@]2(C)C(=O)CC[C@@H]12`: the half-inhibitory concentration (IC50) in the test on B16-F10 was 6.7 µM; with SK-MEL-25, 4.8 µM; in the test with SK-MEL-5, greater than 20 µM; in the test with SK-MEL-28 it was 12.6 µM; with LOX IMVI it was 2.2 µM.
Turning to `C[C@]12CCc3nc(Nc4ccccn4)sc3C1=CC[C@@H]1[C@@H]2CC[C@]2(C)C(=O)CC[C@@H]12`, the concentration for half-maximal inhibition (IC50) in the test on B16-F10 stood at 5.9 µM; in the test with SK-MEL-25, 11.8 µM; in the test on SK-MEL-5, 7.1 µM; with SK-MEL-28, 8.9 µM; in the test with LOX IMVI, 2.3 µM.
Taken in the same sequence, the figures for `C[C@]12CCc3nc(NCCc4ccccc4)sc3C1=CC[C@@H]1[C@@H]2CC[C@]2(C)C(=O)CC[C@@H]12` were 6.1 µM, greater than 20 µM, 5.2 µM, 5.4 µM and 9 µM.
As for `C#C[C@]1(O)CC[C@H]2[C@@H]3CC=C4c5sc(Nc6ncccn6)nc5CC[C@]4(C)[C@H]3CC[C@@]21C`, the half-maximal inhibitory concentration (IC50) was 13.5 µM with B16-F10; 5.7 µM in the test on SK-MEL-25; 4.9 µM in the test on SK-MEL-5; 2.8 µM in the test on SK-MEL-28; 7.8 µM with LOX IMVI.
As to `C#C[C@]1(O)CC[C@H]2[C@@H]3CC=C4c5sc(Nc6ccccn6)nc5CC[C@]4(C)[C@H]3CC[C@@]21C`, the IC50 turned out to be 7.6 µM with B16-F10; 4 µM in the test with SK-MEL-25; 2.6 µM in the test on SK-MEL-5; 3.4 µM with SK-MEL-28; 7.5 µM with LOX IMVI.
In the case of `C#C[C@]1(O)CC[C@H]2[C@@H]3CC=C4c5sc(Nc6cccc(C)n6)nc5CC[C@]4(C)[C@H]3CC[C@@]21C`, the IC50 in the test with B16-F10 amounted to 6.5 µM; in the test on SK-MEL-25 it was 5.1 µM; in the test on SK-MEL-5 it was 3.9 µM; in the test with SK-MEL-28 it was 3 µM; in the test on LOX IMVI it was 2.8 µM.
`C#C[C@]1(O)CC[C@H]2[C@@H]3CC=C4c5sc(Nc6ccc(F)cn6)nc5CC[C@]4(C)[C@H]3CC[C@@]21C`: the IC50 came to 3.1 µM in the test with B16-F10; 3.2 µM in the test with SK-MEL-25; 2.8 µM in the test with SK-MEL-5; 3.5 µM with SK-MEL-28; 5.4 µM with LOX IMVI.
For `Cc1cc(C)cc(Nc2nc3c(s2)C2=CC[C@@H]4[C@H](CC[C@]5(C)C(=O)CC[C@@H]45)[C@@]2(C)CC3)c1` the same measures were 8 µM, 3.2 µM, greater than 20 µM, 2.5 µM and 2.5 µM.
In the case of `C#C[C@]1(O)CC[C@H]2[C@@H]3CC=C4c5sc(Nc6ccc(C)cn6)nc5CC[C@]4(C)[C@H]3CC[C@@]21C`, the 50% inhibitory concentration (IC50) was found to be 7.7 µM with B16-F10; 4.8 µM in the test with SK-MEL-25; 3.7 µM in the test with SK-MEL-5; 4.6 µM in the test with SK-MEL-28; 3.6 µM in the test with LOX IMVI.
In the case of `C[C@]12CCc3nc(Nc4ccc(OC(F)(F)F)cc4)sc3C1=CC[C@@H]1[C@@H]2CC[C@]2(C)C(=O)CC[C@@H]12`, the IC50 in the test on B16-F10 is 11.7 µM; in the test on SK-MEL-25 it was 12.5 µM; with SK-MEL-5, greater than 20 µM; in the test with SK-MEL-28, greater than 20 µM; in the test with LOX IMVI it was 9.3 µM.
Take `C#C[C@]1(O)CC[C@H]2[C@@H]3CC=C4c5sc(-c6ccc(F)cc6)nc5CC[C@]4(C)[C@H]3CC[C@@]21C`: the IC50 was 13.9 µM in the test with B16-F10; greater than 20 µM in the test on SK-MEL-25; greater than 20 µM with SK-MEL-5; greater than 20 µM with SK-MEL-28; 15.6 µM in the test with LOX IMVI.
`C#C[C@]1(O)CC[C@H]2[C@@H]3CC=C4c5sc(-c6ccc7c(c6)OCO7)nc5CC[C@]4(C)[C@H]3CC[C@@]21C`: the concentration for half-maximal inhibition (IC50) is 13 µM in the test with B16-F10; 4.2 µM in the test with SK-MEL-25; 4.9 µM in the test with SK-MEL-5; 6.1 µM in the test with SK-MEL-28; greater than 20 µM in the test on LOX IMVI.
Consider `C[C@]12CCc3nc(Nc4ccc(F)cc4F)sc3C1=CC[C@@H]1[C@@H]2CC[C@]2(C)C(=O)CC[C@@H]12`, for which the IC50 in the test with B16-F10 was 5.5 µM; in the test on SK-MEL-25, greater than 20 µM; in the test with SK-MEL-5, 11.5 µM; in the test on SK-MEL-28 it was 5.3 µM; in the test on LOX IMVI, 2.8 µM.
Taken in the same sequence, the figures for `C[C@]12CCc3nc(Nc4ccc(F)cc4)sc3C1=CC[C@@H]1[C@@H]2CC[C@]2(C)C(=O)CC[C@@H]12` were 4.5 µM, 1.4 µM, 6.4 µM, 3.4 µM and 1.8 µM.
Taken in the same sequence, the figures for `C[C@]12CCc3nc(Nc4ccccc4F)sc3C1=CC[C@@H]1[C@@H]2CC[C@]2(C)C(=O)CC[C@@H]12` were 5.4 µM, greater than 20 µM, greater than 20 µM, 6.4 µM and 6.7 µM.
On to `C#C[C@]1(O)CC[C@H]2[C@@H]3CC=C4c5sc(N6CCN(C)CC6)nc5CC[C@]4(C)[C@H]3CC[C@@]21C`, for which the IC50 was found to be 2.8 µM with B16-F10; 2.8 µM in the test with SK-MEL-25; 2.6 µM with SK-MEL-5; 2 µM in the test with SK-MEL-28; 7.4 µM in the test on LOX IMVI.
As for `C[C@]12CCc3nc(Nc4cccc(F)c4)sc3C1=CC[C@@H]1[C@@H]2CC[C@]2(C)C(=O)CC[C@@H]12`, the IC50 in the test with B16-F10 came to 2.7 µM; in the test with SK-MEL-25, 4.2 µM; in the test with SK-MEL-5, 6.7 µM; in the test on SK-MEL-28, 4.5 µM; in the test on LOX IMVI it was 1.6 µM.
Turning to `C#C[C@]1(O)CC[C@H]2[C@@H]3CC=C4c5sc(Nc6ccc(C)c(Cl)c6)nc5CC[C@]4(C)[C@H]3CC[C@@]21C`, the IC50 in the test on B16-F10 turned out to be 4.9 µM; in the test with SK-MEL-25, 4.6 µM; in the test on SK-MEL-5, 4.3 µM; with SK-MEL-28 it was 5.6 µM; in the test on LOX IMVI, 3.9 µM.
As for `Cc1ccc(Nc2nc3c(s2)C2=CC[C@@H]4[C@H](CC[C@]5(C)C(=O)CC[C@@H]45)[C@@]2(C)CC3)c(C)c1`, the IC50 was found to be 6.1 µM in the test with B16-F10; 4.4 µM in the test with SK-MEL-25; 6.6 µM in the test on SK-MEL-5; 1.9 µM in the test with SK-MEL-28; 3.6 µM with LOX IMVI.
